Laboratory results published in article PMC4503722, “Novel Phenotypic Outcomes Identified for a Public Collection of Approved Drugs from a Publicly Accessible Panel of Assays” (PLoS ONE, 2015).

What was measured:
[1] = tested on: endothelial tube formation in co-cultures of ECFCs and ADSCs treated with VEGF; assay: cells; format: cell-based, human
NCI-H716 cells = assay: cells; format: cell-based, Human; conditions: for hNCI-H716 GLP1 Secretion IC50/EC50: assay number 12; for IC50/EC50, hNCI-H716 GLP1 Secretion (assay number 12): concentration response
STC-1 cell line = format: cell-based, mouse; conditions: for mSTC-1 GLP1 Secretion IC50/EC50: assay number 13; for IC50/EC50, mSTC-1 GLP1 Secretion (assay number 13): concentration response
HeLa cells = assay: cells; format: cell-based; conditions: for Hela CellCycMod PI 2N IC50/EC50: assay number 14; for Hela CellCycMod PI S Phase IC50/EC50: assay number 15; for Hela CellCycMod PI 4N IC50/EC50: assay number 16; for Hela CellCycMod PI MI IC50/EC50: assay number 17; for Hela CellCycMod PI Cell Number IC50/EC50: assay number 18
DLD-1 = assay: cells; format: cell-based; conditions: for Basal_Viability ATP DLD-1 IC50/EC50: assay number 23
SW480 = assay: cells; format: cell-based; conditions: for Basal_Viability ATP SW480 IC50/EC50: assay number 24
HCT116 = assay: cells; format: cell-based; conditions: basal; for Basal_Viability ATP HCT116 IC50/EC50: assay number 25
[2] = tested on: HCT116 cells treated with a GSK3β inhibitor; assay: cells; format: cell-based; conditions: for GSK3b inh pretreated_Viability ATP HCT116 IC50/EC50: assay number 26, GSK3b inhibitor pretreated
Colo320 = assay: cells; format: cell-based; conditions: for Basal_Viability ATP Colo 320 IC50/EC50: assay number 27
HT-29 = assay: cells; format: cell-based; conditions: for Basal_Viability ATP HT-29 IC50/EC50: assay number 28
RKO = assay: cells; format: cell-based; conditions: for Basal_Viability ATP RKO IC50/EC50: assay number 29
SNU-C1 = assay: cells; format: cell-based; conditions: for Basal_Viability ATP SNU-C1 IC50/EC50: assay number 30
[3] = tested on: ECFC/ADSC co-culture cell nuclei number
INS-1E cells = assay: cells; format: cell-based, rat; conditions: 5 mM glucose; for 5mMGluc_INS1E SecretionMod IC50/EC50: assay number 8;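 on all read-outs here: secreted insulin quantified by homogeneous immunoassay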

SMILES	VEGF_ADSC\ECFC Angio CD31 TubeArea IC50/EC50 [1] [µM]	hNCI-H716 GLP1 Secretion IC50/EC50 (NCI-H716 cells) [µM]	mSTC-1 GLP1 Secretion IC50/EC50 (STC-1 cell line) [µM]	Basal_Viability ATP HCT116 IC50/EC50 (HCT116) [µM]	GSK3b inh pretreated_Viability ATP HCT116 IC50/EC50 [2] [µM]	VEGF_ADSC\ECFC Angio Hoechst NucArea IC50/EC50 [3] [µM]	Basal_Viability ATP DLD-1 IC50/EC50 (DLD-1) [µM]	Basal_Viability ATP SW480 IC50/EC50 (SW480) [µM]	Basal_Viability ATP Colo 320 IC50/EC50 (Colo320) [µM]	Basal_Viability ATP HT-29 IC50/EC50 (HT-29) [µM]	Basal_Viability ATP RKO IC50/EC50 (RKO) [µM]	Basal_Viability ATP SNU-C1 IC50/EC50 (SNU-C1) [µM]	5mMGluc_INS1E SecretionMod IC50/EC50 (INS-1E cells) [µM]	other results
CCN(CC)CCOc1ccc(C(O)(Cc2ccc(Cl)cc2)c2ccc(C)cc2)cc1 (stereo not drawn) [NCGC00165907-03]	3.2104	36.1068	> 40	> 20	3.7372	6.977	–	–	–	–	–	–	–	Hela CellCycMod PI 2N IC50/EC50 (HeLa cells): > 10 µM; Hela CellCycMod PI S Phase IC50/EC50 (HeLa cells): > 10 µM; Hela CellCycMod PI 4N IC50/EC50 (HeLa cells): > 10 µM; Hela CellCycMod PI MI IC50/EC50 (HeLa cells): > 10 µM; Hela CellCycMod PI Cell Number IC50/EC50 (HeLa cells): > 10 µM; Basal_Viability ATP DLD-1 IC50/EC50 (DLD-1; basal): > 20 µM; Basal_Viability ATP SW480 IC50/EC50 (SW480; basal): 3.7592 µM; Basal_Viability ATP Colo 320 IC50/EC50 (Colo320; basal): 8.9928 µM; Basal_Viability ATP HT-29 IC50/EC50 (HT-29; basal): 3.1665 µM; Basal_Viability ATP RKO IC50/EC50 (RKO; basal): 0.2987 µM; Basal_Viability ATP SNU-C1 IC50/EC50 (SNU-C1; basal): 2.4577 µM
COCC(=O)O[C@]1(CCN(C)CCCc2nc3ccccc3[nH]2)CCc2cc(F)ccc2[C@@H]1C(C)C [NCGC00161420-06]	> 10	> 40	8.237	12.3743	5.3311	> 10	7.2629	4.5426	10.5076	3.0782	6.7187	5.4372	–	–
Clc1ccc(CCC(Cn2ccnc2)Sc2c(Cl)cccc2Cl)cc1 (stereo not drawn) [NCGC00179596-03]	3.5313	15.9807	6.9953	2.0642	0.8414	6.743	1.8367	1.6936	0.2211	3.009	2.3045	0.9956	–	–
C/C(=C(\CCOC(=O)C(C)C)SS/C(CCOC(=O)C(C)C)=C(/C)N(C=O)Cc1cnc(C)nc1N)N(C=O)Cc1cnc(C)nc1N [NCGC00167456-02]	–	2.3879	> 40	–	–	–	–	–	–	–	–	–	> 33.33	–
Cl.Oc1ccc([C@H]2CNCc3c2ccc(O)c3O)cc1O [NCGC00183049-01]	–	5.9462	> 20	> 20	0.1876	–	> 20	> 20	0.4662	> 20	0.03316	> 20	–	Hela CellCycMod PI 2N IC50/EC50 (HeLa cells): > 10 µM; Hela CellCycMod PI S Phase IC50/EC50 (HeLa cells): > 10 µM; Hela CellCycMod PI 4N IC50/EC50 (HeLa cells): > 10 µM; Hela CellCycMod PI MI IC50/EC50 (HeLa cells): > 10 µM; Hela CellCycMod PI Cell Number IC50/EC50 (HeLa cells): > 10 µM
Cc1cc(OI)c(C(C)C)cc1-c1cc(C(C)C)c(OI)cc1C [NCGC00159504-04]	–	–	–	–	–	–	–	–	–	–	–	–	–	IC50/EC50, VEGF_ADSC\ECFC Angio CD31 TubeArea (assay number 2) [1]: > 10 µM; IC50/EC50, 5mMGluc_INS1E SecretionMod (assay number 8) (INS-1E cells): > 33.33 µM; IC50/EC50, hNCI-H716 GLP1 Secretion (assay number 12) (NCI-H716 cells): > 40 µM; IC50/EC50, mSTC-1 GLP1 Secretion (assay number 13) (STC-1 cell line): 15.1081 µM; IC50/EC50, VEGF_ADSC\ECFC Angio Hoechst NucArea (assay number 3) [3]: > 10 µM
CC(COc1ccccc1)NN (stereo not drawn) [NCGC00183828-01]	> 10	> 40	27.1817	–	–	> 10	–	–	–	–	–	–	> 33.33	–
CCCCCCCCCCCCCCCC[N+](C)(C)CC.[Br-] [NCGC00166120-02]	1.1378	11.7347	> 40	3.1595	2.6825	7.579	–	–	–	–	–	–	–	Basal_Viability ATP DLD-1 IC50/EC50 (DLD-1; basal): 0.7403 µM; Basal_Viability ATP SW480 IC50/EC50 (SW480; basal): 1.2387 µM; Basal_Viability ATP Colo 320 IC50/EC50 (Colo320; basal): 0.0372 µM; Basal_Viability ATP HT-29 IC50/EC50 (HT-29; basal): 0.4091 µM; Basal_Viability ATP RKO IC50/EC50 (RKO; basal): 0.9309 µM; Basal_Viability ATP SNU-C1 IC50/EC50 (SNU-C1; basal): 0.004 µM
NC(=O)C1(N2CCCCC2)CCN(CCCN2c3ccccc3CCc3ccc(Cl)cc32)CC1 [NCGC00253595-01]	3.4001	18.348	> 40	–	–	> 10	–	–	–	–	–	–	10.0823	–
OCCN1CCN(CC/C=C2/c3ccccc3Sc3ccc(C(F)(F)F)cc32)CC1 [NCGC00162179-08]	–	–	–	–	–	–	–	–	–	–	–	–	–	IC50/EC50, hNCI-H716 GLP1 Secretion (assay number 12) (NCI-H716 cells): 32.1555 µM; IC50/EC50, mSTC-1 GLP1 Secretion (assay number 13) (STC-1 cell line): > 40 µM; IC50/EC50, Basal_Viability ATP DLD-1 (assay number 23) (DLD-1; basal): 1.467 µM; IC50/EC50, Basal_Viability ATP SW480 (assay number 24) (SW480; basal): 3.928 µM; IC50/EC50, Basal_Viability ATP HCT116 (assay number 25) (HCT116): 4.577 µM; IC50/EC50, GSK3b inh pretreated_Viability ATP HCT116 (assay number 26) ([2]; GSK3b inh pretreated): 2.894 µM; IC50/EC50, Basal_Viability ATP Colo 320 (assay number 27) (Colo320; basal): 2.3138 µM; IC50/EC50, Basal_Viability ATP HT-29 (assay number 28) (HT-29; basal): 1.808 µM; IC50/EC50, Basal_Viability ATP RKO (assay number 29) (RKO; basal): 0.3178 µM; IC50/EC50, Basal_Viability ATP SNU-C1 (assay number 30) (SNU-C1; basal): 1.035 µM
